How the values were obtained:
rat [1] = details: Combined chronic toxicity/carcinogenicity, wistar, Oral, Feed, dose end: 24 month, group: systemic
rat [2] = details: Subchronic oral toxicity in rodents, Feed, dose end: 3 month, group: systemic
dog [3] = details: Subchronic oral toxicity in nonrodent, beagle, Feed, dose end: 13 week, group: systemic, systemic / pathology microscopic / kidney / pyelonephritis
mouse [4] = details: Carcinogenicity, other, Oral, Feed, dose end: 105 week, group: systemic
rat [5] = details: Prenatal developmental toxicity study, Oral, Gavage/Intubation, dose end: 16 GD
dog [6] = details: Chronic toxicity, beagle, Oral, Feed, dose end: 104 week, group: systemic
rat [7] = details: Multigenerational reproductive toxicity study, sprague dawley, Oral, Feed, dose end: 2 generation
mouse [8] = details: Carcinogenicity, cd1, Oral, Feed, dose end: 20 month, group: systemic
rat [9] = details: Subchronic oral toxicity in rodents, fischer, Feed, dose end: 84 day, group: systemic, systemic / clinical chemistry / thyroxine (t4) / thyroxine (t4)
rat [10] = details: Combined chronic toxicity/carcinogenicity; fischer; Oral; Feed; dose end: 104 week; group: systemic; systemic / hematology / methemoglobin / methemoglobin + systemic / pathology microscopic / kidney / mineralization + systemic / pathology …
rabbit = details: Prenatal developmental toxicity study, new zealand white, Oral, Gavage/Intubation, dose end: 18 GD
dog [11] = details: Chronic toxicity; beagle; Oral; Feed; dose end: 52 week; group: systemic; systemic / organ weight / liver / absolute + systemic / organ weight / liver / relative to body weight
mouse [12] = details: Carcinogenicity; other; Oral; Feed; dose end: 18 month; group: systemic; systemic / pathology microscopic / liver / hypertrophy + systemic / pathology microscopic / liver / necrosis
dog [13] = details: Subchronic oral toxicity in nonrodent, beagle, Feed, dose end: 13 week, group: systemic, systemic / clinical chemistry / alanine aminotransferase (alt/sgpt) / alanine aminotransferase (alt/sgpt) + systemic / clinical chemistry / …
rat [14] = details: Multigenerational reproductive toxicity study, sprague dawley, Oral, Feed, dose end: 2 generation; remark: listed apart in the source
rat [15] = details: Prenatal developmental toxicity study, sprague dawley, Oral, Gavage/Intubation, dose end: 15 GD
dog [16] = details: Chronic toxicity, beagle, Oral, Feed, dose end: 52 week, group: systemic
mouse [17] = details: Subchronic oral toxicity in rodents, cd1, Feed, dose end: 13 week, group: systemic, systemic / pathology microscopic / liver / cytomegaly + systemic / pathology microscopic / spleen / hematopoietic cell proliferation + …
[18] = systemic / clinical chemistry / lipids, total / lipids, total + systemic / organ weight / ovary / relative to body weight + systemic / organ…
[19] = systemic / pathology microscopic / liver / focal cellular change + systemic / pathology microscopic / liver / hypertrophy + systemic / …
[20] = systemic / pathology microscopic / liver / hypertrophy
[21] = group: developmental, developmental / developmental malformation / bone / incomplete ossification + systemic / in life observation / body weight / fetal weight
[22] = group: maternal, reproductive / reproductive performance / postimplantation loss / postimplantation loss + systemic / in life observation / body weight / …
[23] = systemic / in life observation / body weight / body weight + systemic / in life observation / body weight / body weight gain
[24] = group: offspring, developmental / offspring survival late / [other] / [other]
[25] = group: parental, systemic / organ weight / kidney / relative to body weight + systemic / organ weight / spleen / absolute + systemic / organ weight / spleen…
[26] = group: parental, systemic / organ weight / liver / absolute + systemic / organ weight / liver / relative to body weight
[27] = systemic / pathology microscopic / eye / cataract
[28] = systemic / pathology microscopic / eye / cataract + systemic / hematology / erythrocyte (rbc) count differential / erythrocyte (rbc) + …
[29] = total + systemic / clinical chemistry / phosphorus / phosphorus + systemic…
[30] = group: developmental, developmental / developmental malformation / bone / full supernumerary + developmental / developmental malformation / bone / supernumerary
[31] = group: developmental, developmental / developmental malformation / bone / full supernumerary + developmental / developmental malformation / bone / supernumerary…
[32] = group: maternal, systemic / pathology microscopic / liver / hypertrophy + systemic / pathology microscopic / liver / vacuolization
[33] = group: maternal, systemic / pathology microscopic / liver / hypertrophy + systemic / pathology microscopic / liver / vacuolization + systemic / in life …
[34] = group: offspring, developmental / offspring survival late / viability index / viability index + reproductive / offspring survival early / offspring survival …
[35] = group: parental, systemic / pathology microscopic / liver / congestion
[36] = group: developmental, developmental / developmental malformation / bone / delayed ossification + developmental / developmental malformation / bone / full …
[37] = group: maternal, systemic / in life observation / body weight / body weight gain + systemic / in life observation / body weight / body weight + systemic / in…
[38] = systemic / in life observation / body weight / body weight gain

Molecule `CCOC(=O)C(C)Oc1ccc(Oc2nc3ccc(Cl)cc3o2)cc1` (configuration not stated) [Fenoxaprop-ethyl] has an LOAEL (rat [1]; systemic / clinical chemistry / cholesterol / cholesterol + systemic / clinical chemistry / lipids, total / lipids, total) of 9 mg/kg/day, an NOAEL (rat [1]; systemic / clinical chemistry / cholesterol / cholesterol + systemic / clinical chemistry / lipids, total / lipids, total + systemic / organ…) of 1.5 mg/kg/day and an NEL (rat [1]; systemic / clinical chemistry / cholesterol / cholesterol + systemic / hematology / leukocyte (wbc) count differential / leukocyte (wbc) + …) of 0.25 mg/kg/day. For the same molecule, the LEL (rat [1]; systemic / clinical chemistry / cholesterol / cholesterol + systemic / pathology microscopic / liver / glycogen liberation + systemic / …) was 1.5 mg/kg/day, the LEL (rat [2]; [18]) was 1 mg/kg/day and the NEL (rat [2]; [18]) was under 1 mg/kg/day. It also gave an LOAEL (rat [2]; systemic / organ weight / adrenal gland / relative to body weight) of 4 mg/kg/day, an NOAEL (rat [2]; systemic / organ weight / adrenal gland / relative to body weight + systemic / clinical chemistry / cholesterol / cholesterol + systemic / …) of 1 mg/kg/day and an LEL (dog [3]) of 2 mg/kg/day. For the same molecule, the LOAEL (dog [3]) was 2 mg/kg/day, the NEL (dog [3]) was 0.4 mg/kg/day and the NOAEL (dog [3]) was 0.4 mg/kg/day. For the same molecule, the LOAEL (mouse [4]; [19]) was 16.6 mg/kg/day, the NOAEL (mouse [4]; [19]) was 5.7 mg/kg/day and the LEL (mouse [4]; [20]) was 5.7 mg/kg/day. The NEL (mouse [4]; [20]) was under 5.7 mg/kg/day, the LEL (rat [5]; [21]) was 100 mg/kg/day and the LOAEL (rat [5]; [21]) was 100 mg/kg/day. For the same molecule, the NEL (rat [5]; [21]) was 32 mg/kg/day, the NOAEL (rat [5]; [21]) was 32 mg/kg/day and the LEL (rat [5]; [22]) was 100 mg/kg/day. It also gave an LOAEL (rat [5]; [22]) of 100 mg/kg/day, an NEL (rat [5]; [22]) of 32 mg/kg/day and an NOAEL (rat [5]; [22]) of 32 mg/kg/day. It also gave an LEL (dog [6]; systemic / in life observation / body weight / body weight) of 0.375 mg/kg/day, an LOAEL (dog [6]; [23]) of 1.88 mg/kg/day and an NEL (dog [6]; [23]) of 0.075 mg/kg/day. For the same molecule, the NOAEL (dog [6]; [23]) was 0.375 mg/kg/day, the LEL (rat [7]; [24]) was 0.25 mg/kg/day and the LOAEL (rat [7]; [24]) was 0.25 mg/kg/day. For the same molecule, the NEL (rat [7]; [24]) was under 0.25 mg/kg/day, the NOAEL (rat [7]; [24]) was under 0.25 mg/kg/day and the LEL (rat [7]; [25]) was 1.94 mg/kg/day. It also gave an NEL (rat [7]; [25]) of 0.33 mg/kg/day, an LOAEL (rat [7]; [26]) of 9.05 mg/kg/day and an NOAEL (rat [7]; [26]) of 1.53 mg/kg/day.

For `CC(C)N(C(=O)COc1nnc(C(F)(F)F)s1)c1ccc(F)cc1` [Flufenacet], the LOAEL (mouse [8]; [27]) was 7.4 mg/kg/day, the NOAEL (mouse [8]; [27]) was under 7.4 mg/kg/day and the LEL (mouse [8]; [28]) was 7.4 mg/kg/day. For the same molecule, the NEL (mouse [8]; [28]) was under 7.4 mg/kg/day, the LOAEL (rat [9]; total) was 6 mg/kg/day and the NOAEL (rat [9]; total) was under 6 mg/kg/day. It also gave an LEL (rat [9]; [29]) of 6 mg/kg/day, an NEL (rat [9]; [29]) of under 6 mg/kg/day and an LEL (rat [10]) of 1.2 mg/kg/day. The LOAEL (rat [10]) was 1.2 mg/kg/day, the NEL (rat [10]) was under 1.2 mg/kg/day and the NOAEL (rat [10]) was under 1.2 mg/kg/day. It also gave an LEL (rabbit; [30]) of 125 mg/kg/day, an LOAEL (rabbit; [30]) of 125 mg/kg/day and an NEL (rabbit; [31]) of 25 mg/kg/day. It also gave an NOAEL (rabbit; [31]) of 25 mg/kg/day, an LEL (rabbit; [32]) of 25 mg/kg/day and an LOAEL (rabbit; [32]) of 25 mg/kg/day. The NEL (rabbit; [33]) was 5 mg/kg/day, the NOAEL (rabbit; [33]) was 5 mg/kg/day and the LEL (dog [11]) was 17.3 mg/kg/day. It also gave an LOAEL (dog [11]) of 17.3 mg/kg/day, an NEL (dog [11]) of 3.15 mg/kg/day and an NOAEL (dog [11]) of 3.15 mg/kg/day. The LEL (mouse [12]) was 2.1 mg/kg/day, the LOAEL (mouse [12]) was 2.1 mg/kg/day and the NEL (mouse [12]) was under 2.1 mg/kg/day. It also gave an NOAEL (mouse [12]) of under 2.1 mg/kg/day, an LEL (dog [13]) of 1.67 mg/kg/day and an LOAEL (dog [13]) of 6.9 mg/kg/day. It also gave an NEL (dog [13]) of under 1.67 mg/kg/day, an NOAEL (dog [13]) of 1.7 mg/kg/day and an LEL (rat [14]; [34]) of 7.3 mg/kg/day. The LOAEL (rat [14]; [34]) was 7.3 mg/kg/day, the NEL (rat [14]; [34]) was 1.4 mg/kg/day and the NOAEL (rat [14]; [34]) was 1.4 mg/kg/day. It also gave an LEL (rat [14]; [35]) of 1.4 mg/kg/day, an NEL (rat [14]; [35]) of under 1.4 mg/kg/day and an LOAEL (rat [14]; group: parental, systemic / pathology microscopic / liver / hypertrophy) of 7.3 mg/kg/day. For the same molecule, the NOAEL (rat [14]; group: parental, systemic / pathology microscopic / liver / hypertrophy + systemic / pathology microscopic / liver / congestion) was 1.4 mg/kg/day, the LEL (rat [15]; [36]) was 125 mg/kg/day and the LOAEL (rat [15]; [36]) was 125 mg/kg/day. It also gave an NEL (rat [15]; [36]) of 25 mg/kg/day, an NOAEL (rat [15]; [36]) of 25 mg/kg/day and an LOAEL (rat [15]; group: maternal, systemic / in life observation / body weight / body weight gain) of 125 mg/kg/day. It also gave an LEL (rat [15]; [37]) of 125 mg/kg/day, an NEL (rat [15]; [37]) of 25 mg/kg/day and an NOAEL (rat [15]; [37]) of 25 mg/kg/day. For the same molecule, the LOAEL (dog [16]; systemic / clinical chemistry / alanine aminotransferase (alt/sgpt) / alanine aminotransferase (alt/sgpt) + systemic / clinical chemistry / …) was 26.8 mg/kg/day, the LEL (dog [16]; [38]) was 1.14 mg/kg/day and the NEL (dog [16]; [38]) was under 1.14 mg/kg/day. The NOAEL (dog [16]; systemic / in life observation / body weight / body weight gain + systemic / clinical chemistry / alanine aminotransferase (alt/sgpt) / …) was 1.14 mg/kg/day, the LEL (mouse [17]) was 64.2 mg/kg/day and the LOAEL (mouse [17]) was 64.2 mg/kg/day. For the same molecule, the NEL (mouse [17]) was 18.2 mg/kg/day and the NOAEL (mouse [17]) was 18.2 mg/kg/day.
